The target in the experiment is T1, human MC4R (Homo sapiens, UniProt P32245).
T1 construct: expressed in transfected cells
Put plainly: Functional cAMP assay (CisBio HTRF) in BHK cells expressing human MC4R. Type of experiment: cell-based. As to conditions: for MC1R/MC4R cAMP EC50 ratio: MC1R cAMP EC50 divided by MC4R cAMP EC50. As for the experimental part: In order to assess the potency of the compounds on human MC1R and human MC4R cAMP signalling was measured.
cAMP induction was measured by c-AMPdynamic2 assay, HTRF 62AM4PEC system from CisBio for the human MC1R and human MC4R according to the protocol provided by the vendor. BHK cells expressing the human MC1 or MC4 receptor were generated by stable transfection with expression vectors encoding the cDNA of either MC1R or MC4R.
In details; 25 μl compound—or standard solution were added in the respective wells. Compound was reconstituted in buffer (DMEM w/o phenol red, 10 mM
Hepes, lx Glutamine, 0.1% OV-albumin1, 1 mM IBMX) and serially diluted starting at 2 μM, 10-fold seven times. Dilutions were carried out in the same aforementioned buffer to the desired working concentration ranges (2× higher than the final concentration). 25 μl cell solution was then added and allowed to incubate for 30 min while lightly shaking, at 25° C. […] The provided components for the assay were reconstituted according to the CisBio assay protocol “3.1 supplied reagents and preparation procedure” in MilliQ purification system H2O and diluted 1:20 in lysis buffer. 25 μl cAMP-d2 and 25 μl Cryptate conjugate were added to all wells.
Plates were centrifuged at 1500 rpm for 30 sec and incubated for 1 h, lightly shaking, at 25° C. in a hotel stacker. The plates were read on Mithras LB 940 provided by Berthold Technologies The data were analysed by non-linear regression analysis of binding curves, using the Windows™ program GraphPad™ Prism (GraphPad Software, USA).
The latter is used when no full curve can be obtained in the concentration ranges indicated above.

The mark [1] stands for this setting: BHK cells expressing human MC4R, '>' = highest dose used with no response, read-out: MC4R cAMP EC50.

pEC50: −log10 of the molar value. Read-outs that look alike come from different tables or passages of the source. Starred links: 1 amine or outer side, 2 acyl side, 3 side chain; linkers in the order of their positions; H or OH if unused. Positions of bridges follow the written chain, without caps; N, C: chain ends. Non-standard residues stand in square brackets, D forms with d. Residues, ends and D or L forms follow the SMILES beside them. Pen = CC(C)(S)[C@H](N)C(=O)O; d(hCys) = N[C@H](CCS)C(=O)O; Orn = NCCC[C@H](N)C(=O)O; Thz = O=C(O)[C@@H]1CSCN1; X1 = C(CN[*:2])CS[*:1]; Sar = CNCC(=O)O

T1 sequence (P32245 whole entry): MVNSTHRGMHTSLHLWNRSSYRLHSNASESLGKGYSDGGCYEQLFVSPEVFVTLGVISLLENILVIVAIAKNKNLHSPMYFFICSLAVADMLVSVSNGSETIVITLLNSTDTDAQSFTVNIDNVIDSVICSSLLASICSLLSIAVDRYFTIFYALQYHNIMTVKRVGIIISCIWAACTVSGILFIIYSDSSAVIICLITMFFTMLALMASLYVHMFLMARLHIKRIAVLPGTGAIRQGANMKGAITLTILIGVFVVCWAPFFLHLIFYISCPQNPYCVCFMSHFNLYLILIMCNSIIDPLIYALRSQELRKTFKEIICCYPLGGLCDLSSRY

Turning to `CN1CC(=O)N[C@@H](Cc2c[nH]cn2)C(=O)N[C@H](Cc2ccccc2)C(=O)N[C@@H](CCCNC(=N)N)C(=O)N[C@@H](Cc2c[nH]c3ccccc23)C(=O)N[C@H]2CSSC[C@H](NC(=O)[C@H](Cc3c[nH]c4ccccc34)NC(=O)[C@H](CCCNC(=N)N)NC(=O)[C@@H](Cc3ccccc3)NC(=O)[C@H](Cc3c[nH]cn3)NC(=O)CN(C)C2=O)C1=O` [Chem. 31, c[c[Cys-Sar-His-D-Phe-Arg-Trp-Cys]- Sar-His-D-Phe-Arg-Trp]] (cyclo(C[Sar]H[dF]RWC[Sar]H[dF]RW); disulfide 1-7), the “MC1R/MC4R cAMP EC50 ratio” value was found to be 27. Moreover, the pEC50 under setting [1] was 9.54.

Take `C[C@@H]1NC(=O)[C@@H]2CSSC[C@H](NC(=O)[C@H](CCCNC(=N)N)NC(=O)[C@@H](CCCCN)NC(=O)[C@@H](CCCCN)NC(=O)[C@H](Cc3c[nH]cn3)NC1=O)C(=O)N1CCC[C@H]1C(=O)N[C@@H](Cc1c[nH]cn1)C(=O)N[C@H](Cc1ccccc1)C(=O)N[C@@H](Cc1c[nH]cn1)C(=O)N[C@@H](Cc1c[nH]c3ccccc13)C(=O)N2` [Chem. 121, c[c[Cys-Pro-His-D-Phe-His-Trp-Cys]- Ala-His-D-Lys-D-Lys-Arg]] (cyclo(AH[dK][dK]RCPH[dF]HWC); disulfide 6-12): the “MC1R/MC4R cAMP EC50 ratio” value stood at 786. Besides, under setting [1], the pEC50 was 9.62.

For `N=C(N)NCCC[C@@H]1NC(=O)[C@H](Cc2c[nH]c3ccccc23)NC(=O)[C@H](CCCNC(=N)N)NC(=O)[C@@H](Cc2ccccc2)NC(=O)[C@H](Cc2c[nH]cn2)NC(=O)[C@@H]2CSSC[C@H](NC1=O)C(=O)N[C@@H](Cc1c[nH]cn1)C(=O)N[C@H](Cc1ccccc1)C(=O)N[C@@H](CCCNC(=N)N)C(=O)N[C@@H](Cc1c[nH]c3ccccc13)C(=O)N[C@@H](CCCNC(=N)N)C(=O)N2` [Chem. 68, c[c[Cys-His-D-Phe-Arg-Trp-Arg-Cys]- His-D-Phe-Arg-Trp-Arg]] (cyclo(CH[dF]RWRCH[dF]RWR); disulfide 1-7), the “MC1R/MC4R cAMP EC50 ratio” value is reported as 1.

For `N=C(N)NCCC[C@@H]1NC(=O)[C@@H](Cc2ccccc2)NC(=O)[C@H](Cc2c[nH]cn2)NC(=O)[C@@H]2CSSC[C@H](NC(=O)[C@H](CCC(=O)O)NC(=O)[C@H](Cc3c[nH]c4ccccc34)NC1=O)C(=O)N[C@@H](Cc1c[nH]cn1)C(=O)N[C@H](Cc1ccccc1)C(=O)N[C@@H](CCCNC(=N)N)C(=O)N[C@@H](Cc1c[nH]c3ccccc13)C(=O)N[C@@H](CCC(=O)O)C(=O)N2` [Chem. 1, c[c[Cys-His-D-Phe-Arg-Trp-Glu-Cys]- His-D-Phe-Arg-Trp-Glu]] (cyclo(CH[dF]RWECH[dF]RWE); disulfide 1-7), the “MC1R/MC4R cAMP EC50 ratio” value is given as 13.

On to `N=C(N)NCCC[C@@H]1NC(=O)[C@@H](Cc2ccccc2)NC(=O)[C@H](Cc2c[nH]cn2)NC(=O)[C@H](CCC(=O)O)NC(=O)[C@@H]2CSSC[C@H](NC(=O)[C@H](Cc3c[nH]c4ccccc34)NC1=O)C(=O)N[C@@H](CCC(=O)O)C(=O)N[C@@H](Cc1c[nH]cn1)C(=O)N[C@H](Cc1ccccc1)C(=O)N[C@@H](CCCNC(=N)N)C(=O)N[C@@H](Cc1c[nH]c3ccccc13)C(=O)N2` [Chem. 51, c[c[Cys-Glu-His-D-Phe-Arg-Trp-Cys]- Glu-His-D-Phe-Arg-Trp]] (cyclo(CEH[dF]RWCEH[dF]RW); disulfide 1-7), for which the “MC1R/MC4R cAMP EC50 ratio” value is 13. Moreover, the pEC50 under setting [1] is 9.70.

For the molecule `N=C(N)NCCC[C@@H]1NC(=O)[C@H](CCCCN)NC(=O)[C@@H]2CSSC[C@H](NC1=O)C(=O)N1CSC[C@H]1C(=O)N[C@@H](Cc1c[nH]cn1)C(=O)N[C@H](Cc1ccccc1)C(=O)N[C@@H](Cc1c[nH]cn1)C(=O)N[C@@H](Cc1c[nH]c3ccccc13)C(=O)N2` [Chem. 118, c[c[Cys-THAZ-His-D-Phe-His-Trp- Cys]-Lys-Arg]] (cyclo(CKRC[Thz]H[dF]HW); disulfide 1-4), the “MC1R/MC4R cAMP EC50 ratio” value was determined as 1240.

Turning to `C[C@@H]1NC(=O)[C@H](C)NC(=O)[C@H](CCCN)NC(=O)[C@H](CCCN)NC(=O)[C@@H]2CSSC[C@H](NC(=O)[C@H](Cc3c[nH]c4ccccc34)NC1=O)C(=O)N1CSC[C@H]1C(=O)N[C@@H](Cc1c[nH]cn1)C(=O)N[C@H](Cc1ccccc1)C(=O)N[C@@H](Cc1c[nH]cn1)C(=O)N[C@@H](Cc1c[nH]c3ccccc13)C(=O)N2` [Chem. 116, c[c[Cys-THAZ-His-D-Phe-His-Trp- Cys]-Orn-Orn-Ala-Ala-Trp]] (cyclo(AAWC[Thz]H[dF]HWC[Orn][Orn]); disulfide 4-10), the pEC50 was 9.92 and the “MC1R/MC4R cAMP EC50 ratio” value is on record as 1927.

`CC(=O)N[C@@H](Cc1c[nH]cn1)C(=O)N[C@H](Cc1ccccc1)C(=O)N[C@@H](CCCNC(=N)N)C(=O)N[C@@H](Cc1c[nH]c2ccccc12)C(=O)NCC(=O)N[C@@H]1CCSSCCCNC(=O)CNC(=O)[C@H](Cc2c[nH]c3ccccc23)NC(=O)[C@H](CCCNC(=N)N)NC(=O)[C@@H](Cc2ccccc2)NC(=O)[C@H](Cc2c[nH]cn2)NC1=O` [Chem. 4, c[c[Cys-His-D-Phe-Arg-Trp-Gly-Cys]- His-D-Phe-Arg-Trp-Gly]] (Ac-H[dF]RWG[d(hCys)]H[dF]RWG; linker 6-C via X1): the “MC1R/MC4R cAMP EC50 ratio” value was determined as 7. Also, the pEC50 under setting [1] is 10.05.

As to `C[C@@H]1NC(=O)[C@H](C)NC(=O)[C@H](CCCCN)NC(=O)[C@H](CCCCN)NC(=O)[C@H]2NC(=O)[C@H](Cc3c[nH]c4ccccc34)NC(=O)[C@H](Cc3c[nH]cn3)NC(=O)[C@@H](Cc3ccccc3)NC(=O)[C@H](Cc3c[nH]cn3)NC(=O)[C@@H]3CSCN3C(=O)[C@H](CSSC2(C)C)NC(=O)[C@H](Cc2c[nH]c3ccccc23)NC1=O` [Chem. 117, c[c[Cys-THAZ-His-D-Phe-His-Trp- Pen]-Lys-Lys-Ala-Ala-Trp]] (cyclo(AAWC[Thz]H[dF]HW[Pen]KK); disulfide 4-10), the negative-log EC50 (pEC50) is 9.70 and the “MC1R/MC4R cAMP EC50 ratio” value came to 841.

Regarding `C[C@@H]1NC(=O)[C@@H]2CSSC[C@H](NC(=O)[C@H](Cc3c[nH]c4ccccc34)NC(=O)[C@H](Cc3c[nH]cn3)NC(=O)[C@@H](Cc3ccccc3)NC(=O)[C@H](Cc3c[nH]cn3)NC1=O)C(=O)N[C@@H](C)C(=O)N[C@@H](Cc1c[nH]cn1)C(=O)N[C@H](Cc1ccccc1)C(=O)N[C@@H](Cc1c[nH]cn1)C(=O)N[C@@H](Cc1c[nH]c3ccccc13)C(=O)N2` [Chem. 24, c[c[Cys-Ala-His-D-Phe-His-Trp-Cys]- Ala-His-D-Phe-His-Trp]] (cyclo(AH[dF]HWCAH[dF]HWC); disulfide 6-12), the “MC1R/MC4R cAMP EC50 ratio” value was 364. For the same molecule, the negative-log EC50 (pEC50) under setting [1] was 9.31.

Regarding `C[C@@H]1NC(=O)[C@@H]2CSSC[C@H](NC(=O)[C@H](Cc3c[nH]c4ccccc34)NC(=O)[C@H](CCCNC(=N)N)N(C)C(=O)[C@@H](Cc3ccccc3)NC(=O)[C@H](Cc3c[nH]cn3)NC1=O)C(=O)N[C@@H](C)C(=O)N[C@@H](Cc1c[nH]cn1)C(=O)N[C@H](Cc1ccccc1)C(=O)N(C)[C@@H](CCCNC(=N)N)C(=O)N[C@@H](Cc1c[nH]c3ccccc13)C(=O)N2` [Chem. 37, c[c[Cys-Ala-His-D-Phe-N-MeArg-Trp- Cys]-Ala-His-D-Phe-N-MeArg-Trp]], the “MC1R/MC4R cAMP EC50 ratio” value is 8.

Source of the values: patent US20200223889A1, “Bicyclic Compounds Capable of Binding to Melanocortin 4 Receptor” (Novo Nordisk A/S, priority 2017, published 2020).
